Results on 6 compounds are retold here after patent US11000033B2, “Ketone or oxime compound, and herbicide” (NISSAN CHEMICAL CORPORATION, priority 2014, dated 2021).

SMILES strings stand for the structures.

Common to all, as to format: in vivo
Data set [1] concerns wheat. The data set can be described thus: Test Example 5: effect on crop by foliage application, plastic box (symbol e). Particulars: 320 g/ha, 3 weeks after application. In a few lines: (§1)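 Foliage-application test plants come from spot sowing in sterilized diluvial soil under a soil layer of about 1.5 cm, grown at 25° C. to 30° C. in a greenhouse.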
The test system of data set [2] is soybean. The data set can be described thus: Test Example 4: effect on crop by soil treatment (symbol d). To be noted: for Effect on crop grade, d: soybean / d (soybean) effect on crop grade: application herbicide amount 320 g/ha. In a few lines:
(§2)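 Sterilized diluvial soil, spot sowing, ~1.5 cm soil cover; greenhouse 25–30° C.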

Data set [3] concerns rice plant. The data set can be described thus: Test Example 5: effect on crop by foliage application, plastic box (symbol b). To be noted: 320 g/ha, 3 weeks after application. In a few lines: as §1
Data set [4] deals with Amaranthus retroflexus. The data set can be described thus: Test Example 4: herbicidal effect by soil treatment (symbol N). To be noted: for Herbicidal effect grade, N: Amaranthus retroflexus / N (Amaranthus retroflexus) herbicidal effect grade: application herbicide amount 320 g/ha. In a few lines:
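Seeds were sown in sterilized diluvial soil, covered with about 1.5 cm of soil, and the soil surface was sprayed with a water-diluted emulsion of the compound at a predetermined rate. Plants grew in a greenhouse at 25° C. to 30° C.; effects were scored visually 3 weeks after application.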

The test system of data set [5] is rapeseed. The data set can be described thus: Test Example 4: effect on crop by soil treatment (symbol g). Put shortly: as §2
Data set [6] relates to Echinochloa crus-galli var. crus-galli. The data set can be described thus: Test Example 3: herbicidal effect by foliage application, Wagner pot (symbol H). Particulars: application herbicide amount 320 g/ha. Put shortly:
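In a shallow-flooded alluvial soil system held at 25–30 °C, plants including rice grew for 14 days and were then sprayed over the foliage with emulsion diluted to a fixed herbicide amount. Visual rating followed at 3 weeks.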

The subject of data set [7] is soybean. The data set can be described thus: Test Example 5: effect on crop by foliage application, plastic box (symbol d). To be noted: 320 g/ha, 3 weeks after application. Put shortly: as §1
The test system of data set [8] is Avena fatua. The data set can be described thus: Test Example 5: herbicidal effect by foliage application, plastic box (symbol I). To be noted: 320 g/ha, 3 weeks after application. Put shortly:
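Post-emergence spray; diluvial soil (sterilized), ~1.5 cm seed cover; greenhouse 25–30° C; 14-day-old plants; water-diluted emulsion at predetermined dose; visual score at 3 wk post-treatment.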

Data set [9] has as its system Scirpus juncoides. The data set can be described thus: Test Example 1: herbicidal activity, application before weed generation in submerged conditions (symbol B). To be noted: application herbicide amount 320 g/ha. In a few lines:
(§3)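 In a flooded pot test with alluvial soil, the emulsion-formulated compound was diluted with water to a predetermined amount and applied to the floodwater immediately on the sowing day. Pots were held in a greenhouse at 25–30 °C for 3 weeks before each weed was rated.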

The subject of data set [10] is Scirpus juncoides. The data set can be described thus: Test Example 2: herbicidal activity, application during weed generation in submerged conditions (symbol B). To be noted: Table 23; application herbicide amount 320 g/ha; grade 0-5 by criteria of Test Example 1. Put shortly:
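Compound was applied as a water-diluted emulsion into the standing water of flooded pots (4 cm) once co-sown weeds reached one to two leaves. Greenhouse temperature was 25° C. to 30° C., soil was alluvial, and each species was rated visually after 3 weeks.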

Data set [11] relates to Echinochloa oryzacola Vasing. The data set can be described thus: Test Example 1: herbicidal activity, application before weed generation in submerged conditions (symbol A). Particulars: application herbicide amount 320 g/ha. Put shortly: as §3
Setting [12] is: application herbicide amount 320 g/ha.

As for `CC(=O)CC1CC(O)=C(c2c(C)cc(-c3ccc(OC(F)(F)F)cc3)cc2C)C1=O` (centres unmarked) [7-016], the “e: wheat, effect on crop (criteria of Test Example 1)” value in data set [1] was 0 (Herbicidal ratio of 5% or lower (almost no effect)). Also, the “Effect on crop grade, d: soybean” value in [2] is recorded as 0 (Herbicidal ratio of 5% or lower (almost no effect)). In addition, the “b: directly sowed rice plant, effect on crop (criteria of Test Example 1)” value in [3] is 0 (Herbicidal ratio of 5% or lower (almost no effect)). The “Herbicidal effect grade, N: Amaranthus retroflexus” value (from here on “Herbicidal effect grade, N”) in data set [4] is given as 0 (Herbicidal ratio of 5% or lower (almost no effect)). In data set [5] (setting [12]), the “Effect on crop grade, g: rapeseed” value was 0 (Herbicidal ratio of 5% or lower (almost no effect)). In addition, the “herbicidal effect on H (Echinochloa crus-galli var. crus-galli), grade 0-5” value (shortened to “herbicidal effect on H”) in data set [6] is on record as 0 (Herbicidal ratio of 5% or lower (almost no effect)). Also, the “d: soybean, effect on crop (criteria of Test Example 1)” value in data set [7] was 0 (Herbicidal ratio of 5% or lower (almost no effect)). In addition, the “I: Avena fatua, herbicidal effect (criteria of Test Example 1)” value in data set [8] is given as 0 (Herbicidal ratio of 5% or lower (almost no effect)).

As to `C=CC(CC1CC(O)=C(c2c(C)cc(C)cc2C)C1=O)=NOC` (centres unmarked) [1-086], the “e: wheat, effect on crop (criteria 0-5)” value in data set [1] is 0 (Herbicidal ratio of 5% or lower (almost no effect)). For the same compound, the “d: soybean, effect grade on crop” value in [2] (320 g/ha) is recorded as 0 (Herbicidal ratio of 5% or lower (almost no effect)). Besides, the “Herbicidal effect grade, B: Scirpus juncoides” value (“Herbicidal effect grade, B” for short) in data set [9] and in data set [10] was 0 (Herbicidal ratio of 5% or lower (almost no effect)) throughout. Also, the “b: directly sowed rice plant, effect on crop (criteria 0-5)” value in data set [3] is 4 (Herbicidal ratio of 70% or higher and lower than 90%). Besides, the “N: Amaranthus retroflexus, herbicidal effect grade” value in [4] (320 g/ha) is 0 (Herbicidal ratio of 5% or lower (almost no effect)). Besides, the “g: rapeseed, effect grade on crop” value in data set [5] (320 g/ha) is 2 (Herbicidal ratio of 20% or higher and lower than 40%). The “herbicidal effect on H” value in data set [6] was 5 (Herbicidal ratio of 90% or more (almost completely withered)). Moreover, in [7], the “d: soybean, effect on crop (criteria 0-5)” value is reported as 0 (Herbicidal ratio of 5% or lower (almost no effect)). Besides, the “I: Avena fatua, herbicidal effect (criteria 0-5)” value in data set [8] was 4 (Herbicidal ratio of 70% or higher and lower than 90%). The “Herbicidal effect grade, A: Echinochloa oryzacola Vasing.” value in data set [11] is 5 (Herbicidal ratio of 90% or more (almost completely withered)).

Regarding `CON=C(C)CC1CC(OC(=O)COc2ccccc2[N+](=O)[O-])=C(c2c(C)cc(C)cc2C)C1=O` (centres unmarked) [1-071], in [1], the “e: wheat, effect on crop grade” value was 5 (Herbicidal ratio of 90% or more (almost completely withered)). Further, in [2], the “d (soybean) effect on crop grade” value was 0 (Herbicidal ratio of 5% or lower (almost no effect)). In addition, the “Herbicidal effect grade, B” value was 4 (Herbicidal ratio of 70% or higher and lower than 90%) in [9]; 3 (Herbicidal ratio of 40% or higher and lower than 70%) in data set [10]. Also, in data set [3], the “b: directly sowed rice plant, effect on crop grade” value is 5 (Herbicidal ratio of 90% or more (almost completely withered)). Besides, in [4], the “N (Amaranthus retroflexus) herbicidal effect grade” value is 4 (Herbicidal ratio of 70% or higher and lower than 90%). The “g (rapeseed) effect on crop grade” value in data set [5] (setting [12]) was 4 (Herbicidal ratio of 70% or higher and lower than 90%). Further, the “herbicidal effect on H” value in data set [6] is given as 5 (Herbicidal ratio of 90% or more (almost completely withered)). The “d: soybean, effect on crop grade” value in data set [7] is 4 (Herbicidal ratio of 70% or higher and lower than 90%). In addition, the “I: Avena fatua, herbicidal effect grade” value in data set [8] is 5 (Herbicidal ratio of 90% or more (almost completely withered)). Besides, the “Herbicidal effect grade, A: Echinochloa oryzacola Vasing.” value in [11] is on record as 5 (Herbicidal ratio of 90% or more (almost completely withered)).

Consider `CC(=O)CC1CC(O)=C(c2c(C)cc(-c3ncccn3)cc2C)C1=O` (centres unmarked) [7-017], for which the “e: wheat, effect on crop (criteria of Test Example 1)” value in data set [1] is given as 0 (Herbicidal ratio of 5% or lower (almost no effect)). Further, the “Effect on crop grade, d: soybean” value in data set [2] is 0 (Herbicidal ratio of 5% or lower (almost no effect)). Moreover, the “b: directly sowed rice plant, effect on crop (criteria of Test Example 1)” value in [3] is listed as 5 (Herbicidal ratio of 90% or more (almost completely withered)). Moreover, the “Herbicidal effect grade, N” value in [4] is recorded as 0 (Herbicidal ratio of 5% or lower (almost no effect)). Moreover, the “Effect on crop grade, g: rapeseed” value in data set [5] (setting [12]) is 0 (Herbicidal ratio of 5% or lower (almost no effect)). The “herbicidal effect on H” value in [6] is 5 (Herbicidal ratio of 90% or more (almost completely withered)). Also, in data set [7], the “d: soybean, effect on crop (criteria of Test Example 1)” value is reported as 0 (Herbicidal ratio of 5% or lower (almost no effect)). Further, the “I: Avena fatua, herbicidal effect (criteria of Test Example 1)” value in data set [8] is recorded as 0 (Herbicidal ratio of 5% or lower (almost no effect)).

Regarding `CC(=O)CC1CC(O)=C(c2c(C)cc(Oc3ccccc3)cc2C)C1=O` (centres unmarked) [7-014], in data set [1], the “e: wheat, effect on crop (criteria of Test Example 1)” value was 0 (Herbicidal ratio of 5% or lower (almost no effect)). In data set [2], the “Effect on crop grade, d: soybean” value was 0 (Herbicidal ratio of 5% or lower (almost no effect)). For the same compound, the “b: directly sowed rice plant, effect on crop (criteria of Test Example 1)” value in [3] was 3 (Herbicidal ratio of 40% or higher and lower than 70%). Also, the “Herbicidal effect grade, N” value in data set [4] is listed as 0 (Herbicidal ratio of 5% or lower (almost no effect)). Further, the “Effect on crop grade, g: rapeseed” value in data set [5] (setting [12]) is on record as 0 (Herbicidal ratio of 5% or lower (almost no effect)). The “herbicidal effect on H” value in data set [6] is 4 (Herbicidal ratio of 70% or higher and lower than 90%). Besides, in data set [7], the “d: soybean, effect on crop (criteria of Test Example 1)” value is listed as 0 (Herbicidal ratio of 5% or lower (almost no effect)). Further, the “I: Avena fatua, herbicidal effect (criteria of Test Example 1)” value in data set [8] is 1 (Herbicidal ratio of 5% or higher and lower than 20%).

`CON=C(C)CC1CC(OC(=O)COc2ccc(Cl)cc2Cl)=C(c2c(C)cc(C)cc2C)C1=O` (centres unmarked) [1-075]: in data set [1], the “e: wheat, effect on crop (criteria 0-5)” value is 5 (Herbicidal ratio of 90% or more (almost completely withered)). Also, the “d (soybean) effect on crop grade” value in data set [2] is 0 (Herbicidal ratio of 5% or lower (almost no effect)). Besides, the “Herbicidal effect grade, B” value in data set [9] is 4 (Herbicidal ratio of 70% or higher and lower than 90%); in data set [10] it was 4 (Herbicidal ratio of 70% or higher and lower than 90%). Further, the “b: directly sowed rice plant, effect on crop (criteria 0-5)” value in data set [3] was 5 (Herbicidal ratio of 90% or more (almost completely withered)). Moreover, the “N (Amaranthus retroflexus) herbicidal effect grade” value in data set [4] is given as 5 (Herbicidal ratio of 90% or more (almost completely withered)). Also, the “herbicidal effect on H” value in data set [6] is on record as 5 (Herbicidal ratio of 90% or more (almost completely withered)). The “d: soybean, effect on crop (criteria 0-5)” value in data set [7] was 1 (Herbicidal ratio of 5% or higher and lower than 20%). In addition, the “I: Avena fatua, herbicidal effect (criteria 0-5)” value in data set [8] is recorded as 5 (Herbicidal ratio of 90% or more (almost completely withered)). Moreover, in data set [11], the “Herbicidal effect grade, A: Echinochloa oryzacola Vasing.” value was 5 (Herbicidal ratio of 90% or more (almost completely withered)).
